Reference: patent US7169778B2, “Pteridinones as kinase inhibitors” (Warner-Lambert Company, priority 1999, dated 2007)
pIC50: −log10 of the molar value.

Legend:
C-src kinase = C-src kinase (Homo sapiens, UniProt P12931); assay: C-src kinase assay; assay type: biochemical
Experimental: C-src kinase was purified from baculovirus infected insect cell lysates using an antipeptide monoclonal antibody directed against the N-terminal amino acids (amino acids 2–17) of c-src. The antibody, covalently linked to 0.65 μm latex beads, was added to a suspension of insect cell lysis buffer comprised of 150 mM NaCl, 50 mM Tris pH 7.5, 1 mM DTT, 1% NP-40, 2 mM EGTA, 1 mM sodium vanadate, 1 mM PMSF, 1 μg/mL each of leupeptin, pepstatin, and aprotinin. Insect cell lysate containing c-src protein was incubated with these beads for 3 to 4 hours at 4° C. with rotation. At the end of the lysate incubation, the beads were rinsed three times in lysis buffer, resuspended in lysis buffer containing 10% glycerol, and frozen. These latex beads were thawed, rinsed three times in assay buffer (40 mM Tris, pH 7.5, 5 mM mgCl2) and suspended in the same buffer. In a Millipore 96-well plate with a 0.65 μm polyvinylidine membrane bottom were added the reaction components: 10 μL C-src beads, 10 μL of 2.5 mg/mL poly GluTyr substrate, 5 μM ATP containing 0.2 μCi labeled ^32P-ATP, 5 μL DMSO containing inhibitors or as a solvent control, and buffer to make the final volume 125 μL. The reaction was started at room temperature by addition of the ATP and quenched 10 minutes later by the addition of 125 μL of 30% TCA, 0.1 M sodium pyrophosphate for 5 minutes on ice. The plate was then filtered and the wells washed with two […] aliquots of 15% TCA, 0.1 M pyrophosphate. The filters were then punched, counted in a liquid scintillation counter, and the data examined for inhibitory activity in comparison to a known inhibitor such as erbstatin. The method is also described in J. Med. Chem., 1994;37:598–609.

[1] = target: N-terminal truncated Wee 1 (Homo sapiens, UniProt P30291); assay: Wee 1 OY kinase assay; assay type: biochemical; conditions: read-out: WEE1OY IC50
Experimental: These kinase assays are carried out on 96-well filter plates (Millpore, Cat. MADPN0B50) in 50 μL kinase assay buffer (50 mM Tris, pH 8.0, 10 mM NaCl, 10 mM MgCl2, 10 μM ATP with 0.25 μCi [r-32P]ATP, 1 mM DTT) with 0.1 μg purified N-terminal truncated Wee 1 and 6 μg poly(Orn, Tyr)4:1 (Sigma, P4534). The assay is started by adding ATP and incubating at room temperature for 20 minutes with shaking. The reactions are terminated by adding 50 μL ice-cold 20% TCA (trichloracetic acid) with 0.1 M sodium pyrophosphate and shaking the resultant mixture for 1 minute. The plate is then incubated at 4° C. for 1 hour to allow protein to precipitate. These plates are then washed 5 times with 200 μL ice-cold 10% TCA and with 0.1 M sodium pyrophosphate per wash. Twenty-five microliters scintillation liquid is then added to each well, and the plate is counted in Wallac's MicroBeta counter 1450.

[2] = target: T1, mouse PDGF-β receptor tyrosine kinase (Mus musculus, UniProt P05622); assay: PDGF receptor tyrosine kinase assay; assay type: biochemical
T1 construct: amplify a fragment of DNA that codes for the intracellular tyrosine kinase domain; made in house; host or cells: SF9 insect cells (baculovirus)
Excerpt: (§1) Full-length cDNAs for the mouse PDGF-β and human FGF-1 (flg) receptor tyrosine kinases were obtained from J. Escobedo and prepared as described in J. Biol. Chem., 1991;262:1482–1487. PCR primers were designed to amplify a fragment of DNA that codes for the intracellular tyrosine kinase domain. The fragment was inserted into a baculovirus vector, cotransfected with AcMNPV DNA, and the recombinant virus isolated. SF9 insect cells were infected with the virus to overexpress the protein, and the cell lysate was used for the assay. Assays were performed in 96-well plates (100 μL/incubation/well), and conditions were optimized to measure the incorporation of ^32P from γ^32P-ATP into a glutamate-tyrosine co-polymer substrate. Briefly, to each well was added 82.5 μL of incubation buffer containing 25 mM Hepes (pH 7.0), 150 mM NaCl, 0.1% Triton X-100, 0.2 mM PMSF, 0.2 mM Na3VO4, 10 mM MnCl2, and 750 μg/mL of Poly (4:1) glutamate-tyrosine followed by 2.5 μL of inhibitor and 5 μL of enzyme lysate (7.5 μg/μL FGF-TK or 6.0 μg/μL PDGF-TK) to initiate the reaction. Following a 10 minute incubation at 25° C., […] of γ^32P-ATP (0.4 μCi plus 50 μM ATP) was added to each well, and samples were incubated for an additional 10 minutes at 25° C. The reaction was terminated by the addition of 100 μL of 30% TCA containing 20 mM sodium pyrophosphate and precipitation of material onto glass fiber mats (Wallac). Filters were washed three times with 15% TCA containing 100 mM sodium pyrophosphate, and the radioactivity retained on the filters counted in a Wallac 1250 Betaplate reader. Nonspecific activity was defined as radioactivity retained on the filters following incubation of samples with buffer alone (no enzyme). Specific enzymatic activity (enzyme plus buffer) was defined as total activity minus nonspecific activity. The concentration of a compound that inhibited specific activity by 50% (IC50) was determined based on the inhibition curve.

[3] = target: T2, human FGF-1 (flg) receptor tyrosine kinase (Homo sapiens, UniProt P11362); assay: FGF receptor tyrosine kinase assay; assay type: biochemical; conditions: for inhibition at 5 µM: @ 5 (unit μm), read-out: FGF % @ concentration
T2 construct: amplify a fragment of DNA that codes for the intracellular tyrosine kinase domain; made in house; host or cells: SF9 insect cells (baculovirus)
Excerpt: as §1

T2 sequence (P11362 478-767 limits assumed): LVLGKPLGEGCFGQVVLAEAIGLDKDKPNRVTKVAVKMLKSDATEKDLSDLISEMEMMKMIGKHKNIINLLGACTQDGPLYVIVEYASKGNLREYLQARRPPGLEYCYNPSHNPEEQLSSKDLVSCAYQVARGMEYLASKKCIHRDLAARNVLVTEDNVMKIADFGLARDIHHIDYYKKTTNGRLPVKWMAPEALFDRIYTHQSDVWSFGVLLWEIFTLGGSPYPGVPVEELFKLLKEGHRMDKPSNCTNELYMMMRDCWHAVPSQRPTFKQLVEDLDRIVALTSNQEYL
Chain of C-src kinase (P12931 whole entry, the tested form may be a part): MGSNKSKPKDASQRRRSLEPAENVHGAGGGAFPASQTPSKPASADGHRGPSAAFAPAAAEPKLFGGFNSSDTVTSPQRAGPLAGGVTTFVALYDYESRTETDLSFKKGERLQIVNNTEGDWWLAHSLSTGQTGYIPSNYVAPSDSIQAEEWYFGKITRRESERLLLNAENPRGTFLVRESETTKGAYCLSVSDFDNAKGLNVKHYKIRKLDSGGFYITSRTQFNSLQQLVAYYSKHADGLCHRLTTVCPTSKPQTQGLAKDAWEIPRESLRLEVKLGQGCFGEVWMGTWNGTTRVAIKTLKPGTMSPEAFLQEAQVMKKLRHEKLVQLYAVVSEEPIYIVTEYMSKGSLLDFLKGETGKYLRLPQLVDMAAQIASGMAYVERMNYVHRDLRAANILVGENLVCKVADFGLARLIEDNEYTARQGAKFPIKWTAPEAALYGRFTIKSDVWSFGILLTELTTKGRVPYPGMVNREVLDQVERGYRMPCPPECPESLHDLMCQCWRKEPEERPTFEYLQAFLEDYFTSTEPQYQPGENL
Chain of N-terminal truncated Wee 1 (P30291 299-569 limits assumed): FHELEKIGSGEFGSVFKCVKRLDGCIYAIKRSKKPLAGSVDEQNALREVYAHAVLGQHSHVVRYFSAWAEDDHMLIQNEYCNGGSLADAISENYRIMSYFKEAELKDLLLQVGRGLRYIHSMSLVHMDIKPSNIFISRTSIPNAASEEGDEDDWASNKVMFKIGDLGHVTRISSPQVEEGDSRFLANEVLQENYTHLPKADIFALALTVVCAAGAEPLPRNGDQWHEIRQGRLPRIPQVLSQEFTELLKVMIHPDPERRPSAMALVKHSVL
T1 sequence (P05622 599-961 limits assumed): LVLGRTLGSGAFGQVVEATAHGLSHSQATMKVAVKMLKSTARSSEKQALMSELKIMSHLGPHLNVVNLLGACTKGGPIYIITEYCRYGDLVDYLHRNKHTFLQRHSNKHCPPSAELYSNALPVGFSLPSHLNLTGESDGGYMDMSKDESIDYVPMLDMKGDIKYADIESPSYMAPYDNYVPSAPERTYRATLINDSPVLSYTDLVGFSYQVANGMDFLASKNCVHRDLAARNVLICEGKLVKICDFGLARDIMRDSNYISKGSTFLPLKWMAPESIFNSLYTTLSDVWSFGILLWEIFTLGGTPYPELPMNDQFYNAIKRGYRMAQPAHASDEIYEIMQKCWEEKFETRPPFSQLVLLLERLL

SMILES | pIC50 (C-src kinase) | pIC50 [1] | pIC50 [2] | pIC50 [3] | melting point | inhibition at 5 µM [3]
Cn1c(=O)c(-c2ccccc2)nc2cnc(Nc3ccc(N4CCOCC4)cc3)nc21 [Compound 1] | < 4.30 | < 4.30 | < 4.30 | < 4.30 | 302 to 304.5 °C | 
CCN(CC)CCOc1ccc(Nc2ncc3nc(-c4ccccc4)c(=O)n(C)c3n2)cc1 [Compound 3, 2-[[4-[2-(Diethylamino)ethoxy]phenyl]amino]-8-methyl-6-phenyl-8H-pteridin-7-one] | 5.82 | < 4.30 | 5.12 |  | 162 to 165 °C | 54%
CCN(CC)C(=O)c1ccc(Nc2ncc3nc(-c4ccccc4)c(=O)n(C)c3n2)cc1 [Compound 5, 2-[[4-(Diethylaminocarbonyl)phenyl]amino]-8-methyl-6-phenyl-8H-pteridin-7-one] | < 4.30 | < 4.30 | < 4.30 |  | 250 to 252 °C | 38%
CCN(CC)CCOc1ccc(Nc2ncc3nc(-c4cc(OC)cc(OC)c4)c(=O)n(CC)c3n2)cc1 [Compound 14, 6-(3,5-Dimethoxyphenyl)-8-ethyl-2-[[4-[2-(diethylamino)ethoxyl]-phenyl]amino]-8H-pteridin-7-one] |  |  |  | 4.52 | 154 to 155 °C | 
CCn1c(=O)c(-c2cc(OC)cc(OC)c2)nc2cnc(Nc3ccncc3)nc21 [Compound 15, 6-(3,5-Dimethoxyphenyl)-8-ethyl-2-[(pyridin-4-yl)amino]-8H-pteridin-7-one] |  |  |  |  | 245 to 246.5 °C | 
COc1nc(OC)c(Cl)c(-c2nc3cnc(Nc4ccc(N5CCOCC5)cc4)nc3n(C)c2=O)c1Cl [Compound 18, 6-(3,5-Dichloro-2,6-dimethoxypyridin-4-yl)-8-methyl-2-[[4-(morpholin-4-yl)phenyl]amino]-8H-pteridin-7-one] | 4.70 | < 4.30 |  | 6.64 | 275 to 276 °C | 
Cn1c(=O)c(-c2c(Br)cncc2Br)nc2cnc(Nc3ccc(N4CCOCC4)cc3)nc21 [Compound 19, 6-(3,5-Dibromopyridin-4-yl)-8-methyl-2-[[4-(morpholin-4-yl)phenyl]amino]-8H-pteridin-7-one] | 5.84 | 5.13 |  |  | 204 to 206 °C | 
CCN(CC)CCOc1ccc(Nc2ncc3nc(-c4c(Cl)c(OC)nc(OC)c4Cl)c(=O)n(C)c3n2)cc1 [Compound 21, 6-(3,5-Dichloro-2,6-dimethoxypyridin-4-yl)-8-methyl-2-[[4-[2-(diethylamino)ethoxy]phenyl]amino]-8H-pteridin-7-one] | 5.17 | < 4.30 |  | 7.27 |  | 
CCN(CC)C(=O)c1ccc(Nc2ncc3nc(-c4c(Cl)c(OC)nc(OC)c4Cl)c(=O)n(C)c3n2)cc1 [Compound 22, 6-(3,5Dichloro-2,6-dimethoxypyridin-4-yl)-2-[[4-(diethylaminocarbonyl)phenyl]amino]-8-methyl-8H-pteridin-7-one] | 4.33 | < 4.30 |  | 6.80 | 274 to 276 °C | 
O=c1[nH]c2cnc(Nc3ccc(N4CCOCC4)cc3)nc2n(C2CCCC2)c1=O [Compound 23, 8-Cyclopentyl-2-[[4-(morpholin-4-yl]phenyl]amino]-5H,8H-pteridine-6,7-dione] |  |  |  |  | 283 to 286 °C | 
CN1CCN(c2ccc(Nc3ncc4[nH]c(=O)c(=O)n(C5CCCC5)c4n3)cc2)CC1 [Compound 24, 8-Cyclopentyl-2-[[4-(4-methylpiperazin-1-yl)phenyl]amino]-5H,8H-pteridine-6,7-dione] | 5.36 |  |  |  | 266 to 270 °C | 

Continued by rising pIC50 (C-src kinase), values first:

pIC50 (C-src kinase) | pIC50 [1] | pIC50 [2] | pIC50 [3] | melting point | inhibition at 5 µM [3] | SMILES
6.30 | 5.35 |  |  | 230 to 231 °C | 17% | CCN(CC)C(=O)c1ccc(Nc2ncc3nc(-c4c(Cl)cncc4Cl)c(=O)n(C)c3n2)cc1 [Compound 13, 6-(3,5-Dichloropyridin-4yl)-2-[[4-(diethylaminocarbonyl)phenyl]-amino]-8-methyl-8H-pteridin-7-one]
6.42 | 6.00 | 4.60 |  | 243 to 245 °C |  | Cn1c(=O)c(-c2c(Cl)cncc2Cl)nc2cnc(Nc3ccc(N4CCOCC4)cc3)nc21 [Compound 12, 6-(3,5-Dichloropyridin-4-yl)-8-methyl-2-[[4-(morpholin-4-yl)phenyl]amino]-8H-pteridin-7-one]
6.54 | 6.01 | 5.50 | 7.30 | 239 to 241 °C |  | CCN(CC)C(=O)c1ccc(Nc2ncc3nc(-c4c(Cl)cccc4Cl)c(=O)n(C)c3n2)cc1 [Compound 6, 6-(2,6-Dichlorophenyl)-2-[[4-(diethylaminocarbonyl)phenyl]amino]-8-methyl-8H-pteridin-7-one]
6.92 | 5.15 |  |  | 179 to 180.5 °C |  | CCN(CC)CCOc1ccc(Nc2ncc3nc(-c4c(Cl)cncc4Cl)c(=O)n(C)c3n2)cc1 [Compound 20, 6-(3,5-Dichloropyridin-4-yl)-8-methyl-2-[[4-[2-(diethylamino)ethoxy]-phenyl]amino]-8H-pteridin-7-one]
7.24 | 6.84 | 5.11 | < 4.30 | 292 to 293 °C |  | Cn1c(=O)c(-c2c(Cl)cccc2Cl)nc2cnc(Nc3ccc(N4CCOCC4)cc3)nc21 [Compound 2, 6-(2,6-Dichlorophenyl)-8-methyl-2-[[4-(morpholin-4-yl)phenyl]amino]-8H-pteridin-7-one]
7.82 | 6.07 | 6.15 |  | 156 to 161 °C | 69% | CCN(CC)CCOc1ccc(Nc2ncc3nc(-c4c(Cl)cccc4Cl)c(=O)n(C)c3n2)cc1 [Compound 4, 6-(2,6Dichlorophenyl)-2-[[4-[2-(diethylamino)ethoxy]phenyl]amino]-8-methyl-8H-pteridin-7-one]
